Reference: ChEMBL document CHEMBL5131405, “Inhibition of ALK2 with bicyclic pyridyllactams” (Bioorg Med Chem Lett, 2022)

What was measured:
Activin receptor type-1 [1] = molecular target: T1, Activin receptor type-1 (Homo sapiens, UniProt Q04771); assay: Inhibition of ALK2 in human HeLa cells assessed as inhibition of SMAD1 phosphorylation; format: cell-based
T1 sequence (Q04771 whole entry): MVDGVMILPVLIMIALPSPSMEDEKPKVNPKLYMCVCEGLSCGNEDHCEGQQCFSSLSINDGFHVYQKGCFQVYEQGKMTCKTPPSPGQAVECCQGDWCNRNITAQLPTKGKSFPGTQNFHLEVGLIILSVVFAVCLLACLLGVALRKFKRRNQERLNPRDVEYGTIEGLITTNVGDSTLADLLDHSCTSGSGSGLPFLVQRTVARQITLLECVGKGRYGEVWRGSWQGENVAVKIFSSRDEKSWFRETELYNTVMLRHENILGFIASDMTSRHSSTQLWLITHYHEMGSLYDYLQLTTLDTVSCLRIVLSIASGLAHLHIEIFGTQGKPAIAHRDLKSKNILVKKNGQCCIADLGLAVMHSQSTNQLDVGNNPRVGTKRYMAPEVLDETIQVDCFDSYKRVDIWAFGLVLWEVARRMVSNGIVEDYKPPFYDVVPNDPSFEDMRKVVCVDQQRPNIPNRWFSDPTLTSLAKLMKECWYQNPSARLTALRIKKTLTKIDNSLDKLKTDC

[2] = molecular target: Activin receptor type-1-like (Homo sapiens, UniProt P37023); assay: Inhibition of ALK1 (unknown origin); format: toxicity
[3] = molecular target: T2, Bone morphogenetic protein receptor type-1A (Homo sapiens, UniProt P36894); assay: Inhibition of ALK3 (unknown origin)
Activin receptor type-1 [4] = molecular target: T1, Activin receptor type-1; assay: Inhibition of ALK2 (unknown origin)
Activin receptor type-1 [5] = molecular target: T1, Activin receptor type-1; assay: Inhibition of human recombinant ALK2 (172 to 499 residues) expressed in baculovirus-infected insect cells by ADP-Glo kinase assay
[6] = molecular target: T2, Bone morphogenetic protein receptor type-1A; assay: Inhibition of human recombinant ALK3 (198 to 525 residues) expressed in baculovirus-infected insect cells by ADP-Glo kinase assay

T2 sequence (P36894 whole entry): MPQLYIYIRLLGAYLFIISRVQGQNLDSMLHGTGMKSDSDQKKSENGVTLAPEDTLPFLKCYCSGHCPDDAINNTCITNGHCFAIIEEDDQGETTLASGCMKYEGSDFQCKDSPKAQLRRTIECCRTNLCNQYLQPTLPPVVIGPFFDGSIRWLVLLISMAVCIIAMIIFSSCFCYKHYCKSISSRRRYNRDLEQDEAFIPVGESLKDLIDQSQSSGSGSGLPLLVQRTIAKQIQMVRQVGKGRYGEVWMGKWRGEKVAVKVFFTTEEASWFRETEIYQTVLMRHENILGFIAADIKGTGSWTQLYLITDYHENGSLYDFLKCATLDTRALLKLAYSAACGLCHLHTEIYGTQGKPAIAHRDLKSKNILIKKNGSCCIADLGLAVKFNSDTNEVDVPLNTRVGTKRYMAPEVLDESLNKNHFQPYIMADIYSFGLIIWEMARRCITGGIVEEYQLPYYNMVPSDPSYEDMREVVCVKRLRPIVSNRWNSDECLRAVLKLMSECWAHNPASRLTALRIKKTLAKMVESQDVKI
Chain of Activin receptor type-1-like (P37023 whole entry): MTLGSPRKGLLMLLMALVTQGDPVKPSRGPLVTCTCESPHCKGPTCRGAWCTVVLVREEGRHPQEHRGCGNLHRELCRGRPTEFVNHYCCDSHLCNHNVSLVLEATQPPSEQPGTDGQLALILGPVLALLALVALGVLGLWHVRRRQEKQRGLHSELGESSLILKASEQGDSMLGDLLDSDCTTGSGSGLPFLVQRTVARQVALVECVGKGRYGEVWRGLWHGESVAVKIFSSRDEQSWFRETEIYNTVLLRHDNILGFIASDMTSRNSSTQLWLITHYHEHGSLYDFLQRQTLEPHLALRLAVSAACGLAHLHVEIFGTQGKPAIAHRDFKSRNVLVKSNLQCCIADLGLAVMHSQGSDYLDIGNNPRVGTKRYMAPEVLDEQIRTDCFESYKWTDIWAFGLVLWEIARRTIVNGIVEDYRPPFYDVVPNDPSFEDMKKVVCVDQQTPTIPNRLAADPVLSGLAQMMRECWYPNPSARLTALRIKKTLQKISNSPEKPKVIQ

Structure (SMILES)	IC50 (Activin receptor type-1 [1])	IC50 [2]	IC50 [3]	IC50 (Activin receptor type-1 [4])	IC50 (Activin receptor type-1 [5])	IC50 [6]
Nc1ncc(-c2cnn(C3CCNCC3)c2)c2c1C(=O)N(C1C3CC4CC(C3)CC1C4)CC2 (stereo unspecified)	415 nM	27 nM	400 nM	5.3 nM		
C[C@@H]1CCCN1Cc1ccc(-c2cnc(N)c(C(=O)N[C@H]3CC[C@](C)(O)CC3)c2)cc1F					3.6 nM	560 nM
